Source: US4526787A, “N-heterocyclic retinoic acid analogues” (SRI International, priority 1983, dated 1985)

How the values were obtained:
[1] = tested on: Hamster Tracheal Organ Culture; experiment: Tracheal organ culture assay: reversal of keratinization; format: cell-based
Protocol: (§1) The ODC assay measures a compound's ability to prevent the induction of ODC. The tracheal organ culture assay measures a compound's ability to reverse keratinization.
The tracheal organ culture assay is carried out as follows. Tracheas are taken from hamsters that are in very early stages of vitamin A deficiency and placed in organ culture. At the time of culture, the animals are still gaining weight; the tracheal epithelium is generally low columnar or cuboidal, with only occasional patches of squamous metaplasia. Each trachea is opened from the larynx to the carina along the membranous dorsal wall and cultured in a serum-free medium (CMRL-1066; with crystalline bovine insulin, 0.1 μg/ml; hydrocortisone hemisuccinate, 0.1 μg/ml; glutamine, 2 mM; penicillin, 100 units/ml; and streptomycin,100 μg/ml, added). Cultures are gassed with 50% oxygen, 45% nitrogen, and 5% CO2. The culture dishes are rocked at 35.5-36.0 degrees to allow the tracheas contact with both gas and medium. All tracheas are grown in medium containing no retinoid for the first 3 days. At the end of 3 days, some tracheas are harvested; almost of these tracheas have significant squamous metaplasia, and approximately 60% have keratinized lesions. The remaining tracheas are then divided into different groups which are treated with either: (1) retinoid dissolved in dimethylsulfoxide (final concentration of DMSO in culture medium is never greater than 0.1%) or (2) an equivalent amount of DMSO alone. Culture medium is changed three times a week, and all of the remaining tracheas are harvested at the end of 10 days in culture. Tracheas are fixed in 10% buffered formalin and embedded in paraffin. Cross sections of five micrometers are made through the mid-portion, stained with hematoxylin and eosin, and then scored with a microscope for the presence of keratin and keratohyaline granules, both of which are found in approximately 90% of control cultures that received no retinoid for the entire 10 day culture period.

Ornithine Decarboxylase = experiment: ODC assay: inhibition of induction of ornithine decarboxylase by TPA in mouse skin; format: in vivo, mouse (female Charles River CD-1); conditions: topical, 1 hour before TPA (17 nmol)
Protocol: as §1
The ODC assay is carried out as follows. Female Charles River CD-1 mice from Charles River Breeding Laboratories, Wilmington, Mass., are used (age 7 to 9 weeks). The dorsal hair of the mice is shaved 1 to 2 days before testing, and only mice showing no hair regrowth are used. […] The test compound, at one of three dose levels (1.7, 17 and 170 nmol), dissolved in 0.2 mL of acetone is applied 1 hour before the TPA treatment to the test groups; the control group is treated with acetone alone. The mice are killed by cervical dislocation five hours after TPA treatment. Determinations are done in triplicate.
The epidermis is obtained from the sacrificed animals. To obtain sufficient material, the dorsal skins from 2 to 3 mice in each treatment group are pooled. […]
The supernatant fraction remaining after centrifugation of the homogenate at 10,000×g for 30 seconds at 0° C. is used for the enzyme assay. Enzyme activity is determined using the microassay for ODC as described by Verma and Boutwell to measure the release of ^14 CO2 from DL-[1-^14 C]-ornithine (58 mCi/mmol) after incubation with the 10,000×g supernatant. […]

Row | SMILES | Reversal of Keratinization in Hamster Tracheal Organ Culture, Active/Total Cultures ([1]; Conc 10^-8 M) | Reversal of Keratinization in Hamster Tracheal Organ Culture, Active/Total Cultures (%) ([1]; Conc 10^-8 M) | Reversal of Keratinization in Hamster Tracheal Organ Culture, Active/Total Cultures ([1]; Conc 10^-9 M) | Reversal of Keratinization in Hamster Tracheal Organ Culture, Active/Total Cultures (%) ([1]; Conc 10^-9 M) | Reversal of Keratinization in Hamster Tracheal Organ Culture, Active/Total Cultures ([1]; Conc 10^-10 M) | Reversal of Keratinization in Hamster Tracheal Organ Culture, Active/Total Cultures (%) ([1]; Conc 10^-10 M) | Reversal of Keratinization in Hamster Tracheal Organ Culture, Active/Total Cultures ([1]; Conc 10^-11 M) | Reversal of Keratinization in Hamster Tracheal Organ Culture, Active/Total Cultures (%) ([1]; Conc 10^-11 M) | Inhibition of Induction of Ornithine Decarboxylase by 12-O-Tetradecanoylphorbol-13-acetate in Mouse Skin, % Inhibition of Control (Ornithine Decarboxylase; Dose 1.7 nmol) [%] | Inhibition of Induction of Ornithine Decarboxylase by 12-O-Tetradecanoylphorbol-13-acetate in Mouse Skin, % Inhibition of Control (Ornithine Decarboxylase; Dose 17 nmol) [%]
1 | CCOC(=O)c1ccc(/C=C(C)/C=C/C2=C(C)CCCC2(C)C)cn1 [Example, (E)-1-(2-Carbethoxy-5-pyridyl)-2-methyl-4-(2,6,6-trimethyl-1-cyclohexen-1-yl)-1,3-butadiene] | 7/7 | 100 | 8/14 | 57 | 4/14 | 29 | 1/7 | 14 | 29 | 68
2 | CC1=C(/C=C/C(C)=C/C=C/C(C)=C/C(=O)O)C(C)(C)CCC1 [Retinoic Acid] | – | 100 | – | 88 | – | 52 | – | – | – | –
